Among the test systems are DU-145 prostate; HCT-15 colon; HCT-116 colon; SF-295 CNS; NCI-H522 lung; OVCAR-3 ovarian; CAKI-1 renal; EKVX NSCLC; MOLT-4 leukemia; A549 NSCLC.
Assay in all cases: inhibition of tumour cell growth, NCI panel, 48 h

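Interpolation was linear, between the two tested concentrations surrounding the appropriate level; five concentrations were tested over 48 hours in 96-well plates. Here, GI50 denotes the concentration required for 50% inhibition of growth. Definition used: TGI = concentration required for complete inhibition of growth.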

For the compound `COc1cc([N+](=O)[O-])c(S(=O)(=O)O)cc1-n1nc(C(=O)Nc2ccccc2)n[n+]1-c1cc(S(=O)(=O)[O-])c([N+](=O)[O-])cc1OC`, the TGI in the assay on DU-145 prostate, in the assay with HCT-15 colon, in the assay on HCT-116 colon, with SF-295 CNS, in the assay with NCI-H522 lung and in the assay with OVCAR-3 ovarian was more than 100 µM in each case. Moreover, the TGI with CAKI-1 renal, with EKVX NSCLC, in the assay with MOLT-4 leukemia and with A549 NSCLC was more than 100 µM in each case.
`Clc1cccc(CNc2c3ccccc3nc3ccccc23)c1`: the GI50 with DU-145 prostate was 2.57 µM; in the assay with HCT-15 colon it was 1.88 µM; in the assay on HCT-116 colon, 1.35 µM; in the assay on SF-295 CNS it was 1.51 µM; with NCI-H522 lung, 1.88 µM; in the assay on OVCAR-3 ovarian, 2.1 µM. Besides, the GI50 in the assay on CAKI-1 renal is 1.67 µM; in the assay with EKVX NSCLC it was 2.76 µM; in the assay on MOLT-4 leukemia, 2.51 µM; with A549 NSCLC, 2.07 µM. Also, the TGI with DU-145 prostate is 7.17 µM; in the assay with HCT-15 colon, 4.6 µM; with HCT-116 colon it was 3.41 µM; in the assay on SF-295 CNS it was 3.08 µM; in the assay with NCI-H522 lung it was 4.89 µM; with OVCAR-3 ovarian it was 4.56 µM. In addition, the TGI in the assay with CAKI-1 renal was found to be 4.82 µM; in the assay on EKVX NSCLC, 11.2 µM; in the assay with MOLT-4 leukemia, 10.7 µM; in the assay on A549 NSCLC, 6.01 µM.
As to `COc1ccc2c(O)c(/C=C3\N=Nc4ncccc43)oc2c1C[C@@H]1CCNC[C@H]1F`, the GI50 is 0.809 µM in the assay on DU-145 prostate; 0.234 µM in the assay with HCT-15 colon; 0.118 µM with HCT-116 colon; 0.723 µM in the assay on SF-295 CNS; 0.128 µM with NCI-H522 lung; 0.485 µM in the assay with OVCAR-3 ovarian. Further, the GI50 in the assay on CAKI-1 renal was 0.848 µM; in the assay on EKVX NSCLC, 0.426 µM; with MOLT-4 leukemia, 0.181 µM; with A549 NSCLC, 1.31 µM. In addition, the TGI was 4.19 µM in the assay on DU-145 prostate; 1.87 µM in the assay with HCT-15 colon; 1.21 µM with HCT-116 colon; 4.03 µM in the assay on SF-295 CNS; 1.35 µM in the assay on NCI-H522 lung; 2.74 µM in the assay with OVCAR-3 ovarian. In addition, the TGI in the assay with CAKI-1 renal was found to be 6.47 µM; in the assay with EKVX NSCLC, 2.56 µM; in the assay on MOLT-4 leukemia, 0.544 µM; with A549 NSCLC, 3.93 µM.
As for `CC1=C(C(=O)Nc2ccc(F)c(Cl)c2)C(c2cccc(Oc3ccccc3)c2)NC(=S)N1` (stereo not given), the GI50 in the assay with DU-145 prostate is 21.2 µM; in the assay on HCT-15 colon, 11.5 µM; in the assay on HCT-116 colon it was 14.6 µM; with SF-295 CNS, 15.6 µM; with NCI-H522 lung, 8.57 µM; in the assay on OVCAR-3 ovarian it was 11.3 µM. Further, the GI50 was 15.9 µM in the assay with CAKI-1 renal, 14.8 µM in the assay with EKVX NSCLC, more than 50 µM in the assay with MOLT-4 leukemia and 13.7 µM in the assay on A549 NSCLC. Moreover, the TGI in the assay with DU-145 prostate was more than 50 µM; with HCT-15 colon, 33.2 µM; with HCT-116 colon, 46.8 µM; with SF-295 CNS, more than 50 µM; with NCI-H522 lung, 24.3 µM; with OVCAR-3 ovarian it was 28.6 µM. For the same compound, the TGI is more than 50 µM in the assay with CAKI-1 renal, 41.5 µM in the assay with EKVX NSCLC, more than 50 µM with MOLT-4 leukemia and more than 50 µM in the assay on A549 NSCLC.
For the compound `Oc1ccc2ccccc2c1C=NCc1c(O)ccc2ccccc12`, the TGI in the assay on DU-145 prostate is more than 100 µM; in the assay with HCT-15 colon, more than 100 µM; in the assay with HCT-116 colon, more than 100 µM; in the assay on SF-295 CNS, more than 100 µM; in the assay on NCI-H522 lung, 50.5 µM; with OVCAR-3 ovarian, more than 100 µM. In addition, the TGI is more than 100 µM in the assay on CAKI-1 renal, 70.7 µM in the assay on EKVX NSCLC, more than 100 µM with MOLT-4 leukemia and more than 100 µM in the assay with A549 NSCLC.
With `COc1ccc(C2C(C#N)=C(N)Oc3c2sc2c(Br)cccc32)cc1` (stereo not given), the GI50 with DU-145 prostate was 3.27 µM; in the assay on HCT-15 colon it was 0.93 µM; in the assay on HCT-116 colon it was 1.93 µM; in the assay on SF-295 CNS, 0.907 µM; with NCI-H522 lung, 1.75 µM; in the assay on OVCAR-3 ovarian, 0.979 µM. For the same compound, the GI50 in the assay on CAKI-1 renal is 2.47 µM; with EKVX NSCLC, 4.38 µM; in the assay on MOLT-4 leukemia, 1.55 µM; with A549 NSCLC, 4.69 µM. Further, the TGI came out at 11.2 µM in the assay with DU-145 prostate; 10.7 µM with HCT-15 colon; 12.3 µM with HCT-116 colon; 6.54 µM with SF-295 CNS; 6.28 µM in the assay on NCI-H522 lung; 3.75 µM with OVCAR-3 ovarian. For the same compound, the TGI in the assay with CAKI-1 renal turned out to be 18.2 µM; in the assay on EKVX NSCLC, 21 µM; in the assay with MOLT-4 leukemia, 6.78 µM; in the assay with A549 NSCLC, 21 µM.
Take `CCC(C)C1=C(O)[N+]2([O-])Oc3ccc(C4=C(O)C(=O)C(c5ccc(O)cc5)=C(O)C4=O)cc3OC2(C(C)CC)C(=O)N1O` (stereo not given): the GI50 in the assay with DU-145 prostate is 30.9 µM; in the assay with HCT-15 colon, 5.82 µM; with HCT-116 colon, 5.02 µM; in the assay on SF-295 CNS, 13.9 µM; in the assay on NCI-H522 lung, 19 µM; with OVCAR-3 ovarian, 5.39 µM. Besides, the GI50 is 3.77 µM in the assay on CAKI-1 renal, 23.7 µM in the assay with EKVX NSCLC, 11 µM in the assay with MOLT-4 leukemia and 9.35 µM in the assay on A549 NSCLC. Further, the TGI in the assay on DU-145 prostate is more than 100 µM; in the assay on HCT-15 colon, more than 100 µM; with HCT-116 colon, more than 100 µM; with SF-295 CNS it was more than 100 µM; in the assay with NCI-H522 lung, more than 100 µM; in the assay with OVCAR-3 ovarian, 49.1 µM. Also, the TGI with CAKI-1 renal was 30.4 µM; in the assay on EKVX NSCLC, more than 100 µM; in the assay with MOLT-4 leukemia, 41.8 µM; in the assay on A549 NSCLC it was more than 100 µM.
Regarding `Clc1ccc2c(c1)N(C1CCCN(Cc3ccccc3)C1)c1ccccc1S2` (stereo not given), the GI50 in the assay on DU-145 prostate is 4.03 µM; with HCT-15 colon, 4.12 µM; in the assay on HCT-116 colon, 2.92 µM; in the assay on SF-295 CNS it was 2.44 µM; in the assay on NCI-H522 lung, 2.13 µM; with OVCAR-3 ovarian it was 3.27 µM. For the same compound, the GI50 was 4.38 µM in the assay on CAKI-1 renal, 4.22 µM in the assay with EKVX NSCLC, 16.6 µM in the assay with MOLT-4 leukemia and 4.94 µM with A549 NSCLC. Besides, the TGI in the assay on DU-145 prostate was 19.7 µM; in the assay with HCT-15 colon, more than 100 µM; in the assay on HCT-116 colon it was 11.5 µM; in the assay on SF-295 CNS it was 6.82 µM; in the assay on NCI-H522 lung, 6.3 µM; with OVCAR-3 ovarian, 24.4 µM. The TGI was 24 µM in the assay with CAKI-1 renal, 79.9 µM in the assay with EKVX NSCLC, more than 100 µM with MOLT-4 leukemia and more than 100 µM with A549 NSCLC.

The values are drawn from PubChem BioAssay (NCI).
